# Source: US7008944B2, “Antidepressant azaheterocyclylmethyl derivatives of 2,3-dihydro-1,4-Dioxino[2,3-f]quinoxaline” (Wyeth, priority 2001, dated 2006)
# Like-named read-outs stand apart in the source and are kept apart here.
# Key:
# serotonin transporter = target: T1, serotonin transporter (Rattus norvegicus, UniProt P31652); assay: 3H-paroxetine displacement, serotonin transporter affinity; format: binding
# T1 construct: displace ^3H-paroxetine from male rat frontal cortical membranes; from tissue; host or cells: male rat frontal cortex membranes
# T1 sequence (P31652 whole entry): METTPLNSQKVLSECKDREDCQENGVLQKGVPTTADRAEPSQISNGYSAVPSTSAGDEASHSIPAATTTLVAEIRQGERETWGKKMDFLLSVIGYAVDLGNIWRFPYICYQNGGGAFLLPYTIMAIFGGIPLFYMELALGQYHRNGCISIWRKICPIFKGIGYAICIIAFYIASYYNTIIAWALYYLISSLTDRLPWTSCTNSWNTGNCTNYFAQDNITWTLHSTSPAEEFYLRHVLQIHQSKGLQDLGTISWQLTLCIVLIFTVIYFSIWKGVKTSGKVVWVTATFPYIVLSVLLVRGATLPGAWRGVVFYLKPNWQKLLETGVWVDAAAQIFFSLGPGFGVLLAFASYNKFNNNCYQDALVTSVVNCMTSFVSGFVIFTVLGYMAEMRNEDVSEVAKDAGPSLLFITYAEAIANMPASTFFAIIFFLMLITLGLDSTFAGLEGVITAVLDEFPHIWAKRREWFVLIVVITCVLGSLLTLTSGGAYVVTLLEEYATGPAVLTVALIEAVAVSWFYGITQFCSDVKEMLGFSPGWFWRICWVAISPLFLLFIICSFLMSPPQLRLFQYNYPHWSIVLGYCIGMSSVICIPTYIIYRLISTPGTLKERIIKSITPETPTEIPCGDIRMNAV
# human 5-HT1A receptors = target: T2, human 5-HT1A receptors (Homo sapiens, UniProt P08908); assay: [3H] 8-OHDPAT displacement, 5-HT1A receptor affinity; format: binding
# T2 construct: expressed in transfected cells; host or cells: CHO cells
# T2 sequence (P08908 1-422): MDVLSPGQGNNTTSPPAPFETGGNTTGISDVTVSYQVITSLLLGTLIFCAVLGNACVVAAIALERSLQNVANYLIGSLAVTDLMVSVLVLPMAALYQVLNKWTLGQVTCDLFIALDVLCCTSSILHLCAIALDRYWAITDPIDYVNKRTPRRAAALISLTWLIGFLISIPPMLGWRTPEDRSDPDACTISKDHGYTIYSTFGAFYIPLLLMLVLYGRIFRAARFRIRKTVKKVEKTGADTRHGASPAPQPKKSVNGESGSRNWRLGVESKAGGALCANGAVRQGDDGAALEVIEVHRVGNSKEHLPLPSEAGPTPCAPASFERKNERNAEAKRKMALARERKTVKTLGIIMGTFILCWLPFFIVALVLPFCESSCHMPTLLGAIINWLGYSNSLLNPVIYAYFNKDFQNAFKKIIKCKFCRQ
# Source text: High affinity for the serotonin 5-HT1A receptor was established by testing the claimed compound's ability to displace [^3H] 8-OHDPAT (dipropylamino-tetralin) from the 5-HT1A serotonin receptor following a modification of the procedure of Hall et al., J. Neurochem. 44, 1685 (1985) which utilizes CHO cells stably transfected with human 5-HT1A receptors.
# [1] = target: T3, cloned human 5-HT1A receptors (Homo sapiens, UniProt P08908); assay: 35S-GTPγS binding assay, 5-HT1A antagonist activity; format: biochemical; conditions: reversal of the effects of standard agonist 8-OH DPAT; for IC50: read-out: 5-HT1A Function IC50
# T3 construct: expressed in transfected cells
# T3 sequence (P08908 1-422): T2 sequence (P08908 1-422)
# Description: Antagonist activity at 5-HT1A receptors was established by using a ^35S-GTPγS binding assay similar to that used by Lazareno and Birdsall (Br. J. Pharmacol. 109: 1120, 1993), in which the test compound's ability to affect the binding of ^35S-GTPγS to membranes containing cloned human 5-HT1A receptors was determined. Agonists produce an increase in binding whereas antagonists produce no increase but rather reverse the effects of the standard agonist 8-OH DPAT. The test compound's maximum inhibitory effect is represented as the Imax, while its potency is defined by the IC50.
Structure (SMILES),Ki (serotonin transporter) [nM],melting point,Ki (human 5-HT1A receptors) [nM],5-HT1A Function Imax (maximum inhibitory effect) [1] [%],IC50 [1] [nM],"Ki (serotonin transporter; displacement of 3H-paroxetine from male rat frontal cortical membranes, read-out: 5-HT Transporter Affinity KI) [nM]","Ki (human 5-HT1A receptors; displacement of [3H] 8-OHDPAT, CHO cells stably transfected with human 5-HT1A receptors, read-out: 5-HT1A Receptor Affinity KI) [nM]"
"Fc1ccc2[nH]cc(C3=CCN(CC4COc5ccc6nccnc6c5O4)CC3)c2c1 (stereo not drawn) [Example 1, 2-{[4-(5-Fluoro-1H-indol-3-yl)-3,6-dihydro-1(2H)-pyridinyl]methyl}-2,3-dihydro[1,4]dioxino[2,3-f]quinoxaline]",0.5,> 200 °C (dec.),17.7,100,271,,
"C1=C(c2c[nH]c3ccccc23)CCN(CC2COc3ccc4nccnc4c3O2)C1 (stereo not drawn) [Example 2, 2-{[4-(1H-Indol-3-yl)-3,6-dihydro-1(2H)-pyridinyl]methyl}-2,3-dihydro[1,4]dioxino[2,3-f]quinoxaline]",2.86,> 220 °C (dec.),30,100,203,,
Cc1nc2ccc3c(c2nc1C)O[C@@H](CN1CC=C(c2c[nH]c4ccccc24)CC1)CO3 [Example 3],1.19,153 to 155 °C,15.3,100,332,,
"Cc1nc2ccc3c(c2nc1C)OC(CN1CC=C(c2c[nH]c4ccc(F)cc24)CC1)CO3 (stereo not drawn) [Example 4, 2-{[4-(5-Fluoro-1H-indol-3-yl)-3,6-dihydro-1(2H)-pyridinyl]methyl}-8,9-dimethyl-2,3-dihydro[1,4]dioxino[2,3-f]quinoxaline]",1.57,138 to 141 °C,25.5,100,389,,
"CCc1nc2ccc3c(c2nc1CC)OC(CN1CC=C(c2c[nH]c4ccccc24)CC1)CO3 (stereo not drawn) [Example 5, 8,9-Diethyl-2-{[4-(1H-indol-3-yl)-3,6-dihydro-1(2H)-pyridinyl]methyl}-2,3-dihydro[1,4]dioxino[2,3-f]quinoxaline]",9.5,> 120 °C (dec.),99.2,98,1860,,
"CCc1nc2ccc3c(c2nc1CC)OC(CN1CC=C(c2c[nH]c4ccc(F)cc24)CC1)CO3 (stereo not drawn) [Example 6, 8,9-Diethyl-2-{[4-(5-fluoro-1H-indol-3-yl)-3,6-dihydro-1(2H)-pyridinyl]methyl}-2,3-dihydro[1,4]dioxino[2,3-f]quinoxaline]",,> 120 °C (dec.),,100,2240,14,264
